These are literature values, as cited in patent US20220409614A1, “TREATING BEHAVIORAL AND PSYCHOLOGICAL SYMPTOMS IN DEMENTIA PATIENTS” (SUVEN LIFE SCIENCES LIMITED, priority 2019, published 2022).

Read-outs that look alike come from different tables or passages of the source.

One data set relates to patients with AD. The conditions noted are these: citalopram treatment group; cited from earlier work.
The conditions of data set [1]: short-term treatment; cited from earlier work.
The conditions of data set [2]: cited from earlier work.

In the case of `CN(C)CCCC1(c2ccc(F)cc2)OCc2cc(C#N)ccc21` (stereo not drawn) [Citalopram], in the data set with patients with AD, the QT interval result was “QT interval prolongation” and the cognition result is listed as “Worsening of cognition”.

As for `O=C1CCc2ccc(OCCCCN3CCN(c4cccc(Cl)c4Cl)CC3)cc2N1` [aripiprazole], the “symptomatic benefit in BPSD” value in data set [1] was “modest symptomatic benefit”.

Turning to `CC(C)COc1ccc(CNC(=O)N(Cc2ccc(F)cc2)C2CCN(C)CC2)cc1` [Pimavanserin], the “effect on NPI-NH psychosis scale” value in data set [2] (week 6) is recorded as “statistically significant effect”; in data set [2] (week 12), “no effect was evident”.

For `Cc1nc2n(c(=O)c1CCN1CCC(c3noc4cc(F)ccc34)CC1)CCCC2` [risperidone], the “symptomatic benefit in BPSD” value in data set [1] is listed as “modest symptomatic benefit”.
